Laboratory results reported in PubChem BioAssay AID220 (DTP/NCI, 2004).
“And” between values parts separate entries of the source, which are not always exact repeats. Equal entries are not always repeated. Results filed as inconclusive are left out.

System: CD8F1 mice, subcutaneous mammary adenocarcinoma, T/C%
Experiment: NCI In Vivo Anticancer Drug Screen. Data for tumor model Mammary Adenocarcinoma CD8F1 (subcutaneous) in CD8F1
Settings: higher = larger tumour
Method in brief: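 Compound-treated versus vehicle-treated mice with transplantable tumors; survival or tumor size compared as T/C.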

Cc1ccc2c(c1)C(=O)N(CC[P+](c1ccccc1)(c1ccccc1)c1ccccc1)C2=O
T/C (endpoint: mean tumor weight, dose: 1.56 mg/kg/injection, schedule: Q07DX006 (ip), vehicle: water): 90 % of control | T/C (endpoint: mean tumor weight, dose: 6.25 mg/kg/injection, schedule: Q07DX006 (ip), vehicle: water): 96 % of control | T/C (endpoint: median tumor weight (est.), dose: 3.12 mg/kg/injection, schedule: Q07DX005 (ip), vehicle: water): 56 % of control | T/C (endpoint: median tumor weight (est.), dose: 6.25 mg/kg/injection, schedule: Q07DX005 (ip), vehicle: water): 111 % of control

Cc1cc(=O)n2c3c(c4c(cc13)c(CN(C)C)cc(=O)n4C)OC2
T/C (endpoint: median tumor weight change, dose: 62.0 mg/kg/injection, schedule: Q01DX001 (ip), vehicle: saline with Tween-80): 190 % of control

CC(=O)CC(c1ccccc1)c1c(O)c2ccccc2oc1=O (stereo not drawn)
T/C (endpoint: median tumor weight change, dose: 0.01 mg/kg/injection, schedule: Q01DX001 (ip), vehicle: Klucel (hydroxypropylcellulose) (HPC)): 183 % of control | T/C (endpoint: median tumor weight change, dose: 0.02 mg/kg/injection, schedule: Q01DX001 (ip), vehicle: Klucel (hydroxypropylcellulose) (HPC)): 157 % of control | T/C (endpoint: median tumor weight change, dose: 0.05 mg/kg/injection, schedule: Q01DX001 (ip), vehicle: Klucel (hydroxypropylcellulose) (HPC)): 196 % of control | T/C (endpoint: median tumor weight change, dose: 0.1 mg/kg/injection, schedule: Q01DX001 (ip), vehicle: Klucel (hydroxypropylcellulose) (HPC)): 203 % of control | T/C (endpoint: median tumor weight change, dose: 0.2 mg/kg/injection, schedule: Q01DX001 (ip), vehicle: Klucel (hydroxypropylcellulose) (HPC)): 192 % of control

O=CC(=O)c1ccc(O)cc1
T/C (endpoint: median tumor weight (est.), dose: 12.5 mg/kg/injection, schedule: Q07DX005 (ip), vehicle: suspension in saline): 102 % of control | T/C (endpoint: median tumor weight (est.), dose: 25.0 mg/kg/injection, schedule: Q07DX005 (ip), vehicle: suspension in saline): 111 % of control | T/C (endpoint: median tumor weight (est.), dose: 50.0 mg/kg/injection, schedule: Q07DX005 (ip), vehicle: suspension in saline): 123 % of control | T/C (endpoint: median tumor weight (est.), dose: 100.0 mg/kg/injection, schedule: Q07DX005 (ip), vehicle: suspension in saline): 114 % of control

O=CC=O
T/C (endpoint: median tumor weight (est.), dose: 25.0 mg/kg/injection, schedule: Q07DX005 (ip), vehicle: Klucel (hydroxypropylcellulose) (HPC)): 92 % of control and 100 % of control

COc1cc2cc(c1Cl)N1CC(O)C(C)(O)C(=O)NC(C)C(=O)OC(CC1=O)C1(C)OC1C(C)C1CC(O)(NC(=O)O1)C(OC)/C=C\C=C(\C)C2OC (stereo not drawn)
T/C (endpoint: median tumor weight change, dose: 8.0 micrograms/kg/injection, schedule: Q01DX001 (ip), vehicle: distilled water + alcohol): 101 % of control | T/C (endpoint: median tumor weight change, dose: 16.0 micrograms/kg/injection, schedule: Q01DX001 (ip), vehicle: distilled water + alcohol): 111 % of control | T/C (endpoint: median tumor weight change, dose: 64.0 micrograms/kg/injection, schedule: Q01DX001 (ip), vehicle: distilled water + alcohol): 121 % of control

CC[As](=O)(O)CC
T/C (endpoint: mean tumor weight, dose: 12.5 mg/kg/injection, schedule: Q07DX005 (ip), vehicle: saline): 100 % of control | T/C (endpoint: mean tumor weight, dose: 12.5 mg/kg/injection, schedule: Q07DX007 (ip), vehicle: saline): 70 % of control | T/C (endpoint: mean tumor weight, dose: 25.0 mg/kg/injection, schedule: Q07DX005 (ip), vehicle: saline): 34 % of control | T/C (endpoint: mean tumor weight, dose: 25.0 mg/kg/injection, schedule: Q07DX007 (ip), vehicle: saline): 56 % of control | T/C (endpoint: mean tumor weight, dose: 50.0 mg/kg/injection, schedule: Q07DX007 (ip), vehicle: saline): 38 % of control | T/C (endpoint: mean tumor weight, dose: 100.0 mg/kg/injection, schedule: Q07DX005 (ip), vehicle: saline): 98 % of control | T/C (endpoint: mean tumor weight, dose: 100.0 mg/kg/injection, schedule: Q07DX007 (ip), vehicle: saline): 111 % of control | T/C (endpoint: mean tumor weight, dose: 200.0 mg/kg/injection, schedule: Q07DX005 (ip), vehicle: saline): 41 % of control | T/C (endpoint: mean tumor weight, dose: 200.0 mg/kg/injection, schedule: Q07DX007 (ip), vehicle: saline): 53 % of control | T/C (endpoint: median tumor weight (est.), dose: 12.5 mg/kg/injection, schedule: Q07DX005 (ip), vehicle: saline): 96 % of control and 119 % of control | T/C (endpoint: median tumor weight (est.), dose: 25.0 mg/kg/injection, schedule: Q07DX005 (ip), vehicle: saline): 62 % of control and 79 % of control | T/C (endpoint: median tumor weight (est.), dose: 50.0 mg/kg/injection, schedule: Q07DX005 (ip), vehicle: saline): 121 % of control | T/C (endpoint: median tumor weight (est.), dose: 200.0 mg/kg/injection, schedule: Q07DX005 (ip), vehicle: saline): 20 % of control and 41 % of control and 43 % of control

CS(=O)(=O)[O-].CS(=O)(=O)[O-].NC1CCCCC1N.[Pt+4] (stereo not drawn)
T/C (endpoint: median tumor weight (est.), dose: 0.63 mg/kg/injection, schedule: Q07DX005 (ip), vehicle: dextrose): 96 % of control | T/C (endpoint: median tumor weight (est.), dose: 5.0 mg/kg/injection, schedule: Q07DX005 (ip), vehicle: dextrose): 4 % of control and 8 % of control
